This passage reports IC50 results from patent publication US10633419B2, “Immunomodulators” (BRISTOL-MYERS SQUIBB COMPANY, priority 2014, dated 2020).

SMILES strings stand for the structures. Starred links: 1 amine or outer side, 2 acyl side, 3 side chain; linkers in the order of their positions; H or OH if unused. Positions of bridges follow the written chain, without caps; N, C: chain ends. Non-standard residues stand in square brackets, D forms with d. Residues, ends and D or L forms follow the SMILES beside them. *: point of attachment. X4 = O=C(O)CCCCCCCCCCCCCCCCC(=O)N[C@@H](CC(=O)NCCCOCCOCCOCCCN*)C(=O)O; Trp(1-CH2COOH) = N[C@@H](Cc1cn(CC(=O)O)c2ccccc12)C(=O)O; X10 = O=C(O)CCCCCCCCCCCCCCC(=O)N[C@@H](CN*)C(=O)O; d(cisHyp) = O=C(O)[C@H]1C[C@@H](O)CN1; βAsp = O=C(O)[C@H](CC(=O)[*:2])N[*:1]; NH(CH2)12COOH = O=C(O)CCCCCCCCCCCCN*; PEG6 = NCCOCCOCCOCCOCCOCCOCCC(=O)O; cisHyp = O=C(O)[C@@H]1C[C@H](O)CN1; Hyp = O=C(O)[C@@H]1C[C@@H](O)CN1; dHyp = O=C(O)[C@H]1C[C@H](O)CN1; NMeNle = CCCC[C@H](NC)C(=O)O; X20 = O=C(O)CCCCCCCCCCCCCN*; NMeA = CN[C@@H](C)C(=O)O; Aun = NCCCCCCCCCCC(=O)O; Dab = NCC[C@H](N)C(=O)O; Dap = NC[C@H](N)C(=O)O

T1 sequence (Q9NZQ7 with tags, fused parts or gaps): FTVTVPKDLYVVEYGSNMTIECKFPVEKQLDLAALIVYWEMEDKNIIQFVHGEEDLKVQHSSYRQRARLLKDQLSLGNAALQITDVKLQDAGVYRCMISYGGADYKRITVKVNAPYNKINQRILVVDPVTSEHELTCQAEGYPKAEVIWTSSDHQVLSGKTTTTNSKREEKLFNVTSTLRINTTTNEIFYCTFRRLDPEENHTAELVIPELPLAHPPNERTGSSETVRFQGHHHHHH

This assay concerns the target T1, PD-L1 (Homo sapiens, UniProt Q9NZQ7).
T1 construct: hPDL1(19-239)-TVMV-His; made in house; host or cells: HEK293T
Description: PD-1/PD-L1 Homogenous Time-Resolved Fluorescence (HTRF) binding assay (PD-1-Ig/PD-L1-His). The following applies: inhibition of PD-1-Ig binding to PD-L1-TVMV-His; value given as range class; read-out: HTRF IC50. The method in brief:
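HTRF competition in dPBS with 0.1% BSA and 0.05% Tween-20: 20 nM PD-1-Ig added after 15 min compound pre-incubation with 10 nM PD-L1-His, then another 15 min. Signal (665/620 nm) after 30 min with APC anti-His (20 nM) and Eu anti-Ig (1 nM).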
Background: TR-FRET usually uses a lanthanide donor and a delayed reading to cut background.
In general, IC50 refers to the concentration that gives 50% inhibition. On to `CCCC[C@H]1C(=O)N(C)[C@@H](CCCC)C(=O)N[C@@H](CC(C)C)C(=O)N[C@H](C(=O)NCCOCCOCCOCCOCCOCCOCCC(=O)NCCCCCCCCCCC(=O)O)CSCC(=O)N[C@@H](Cc2ccc(O)cc2)C(=O)N(C)[C@@H](C)C(=O)N[C@@H](CC(N)=O)C(=O)N2CCC[C@H]2C(=O)N[C@@H](CO)C(=O)N[C@@H](CCC(N)=O)C(=O)N2C[C@H](O)C[C@@H]2C(=O)N[C@@H](Cc2c[nH]c3ccccc23)C(=O)N[C@@H](CO)C(=O)N[C@@H](Cc2cn(CC(=O)O)c3ccccc23)C(=O)N1C` [Example 11060] ({CH2CO}-Y[NMeA]NPSQ[d(cisHyp)]WS[Trp(1-CH2COOH)][NMeNle][NMeNle]LC[PEG6][Aun]-OH; thioether N-14), for which the IC50 was in the range of 100 to 1600 nM. In the case of `CCCC[C@H]1C(=O)N(C)[C@@H](CCCC)C(=O)N[C@@H](CC(C)C)C(=O)N[C@H](C(=O)NCC(=O)NCC(=O)NCC(=O)NCCCCCCCCCCC(=O)O)CSCC(=O)N[C@@H](Cc2ccc(O)cc2)C(=O)N(C)[C@@H](C)C(=O)N[C@@H](CC(=O)O)C(=O)N2CCC[C@H]2C(=O)N[C@@H](CN)C(=O)N[C@@H](CCC(N)=O)C(=O)N2C[C@H](O)C[C@H]2C(=O)N[C@@H](Cc2c[nH]c3ccccc23)C(=O)N[C@@H](CCN)C(=O)N[C@@H](Cc2cn(CC(=O)O)c3ccccc23)C(=O)N1C` [Example 11095] ({CH2CO}-Y[NMeA]DP[Dap]Q[Hyp]W[Dab][Trp(1-CH2COOH)][NMeNle][NMeNle]LCGGG[Aun]-OH; thioether N-14), the IC50 lay within 0.3 to 9.9 nM. As for `CCCC[C@H]1C(=O)N(C)[C@@H](CCCC)C(=O)N[C@@H](CC(C)C)C(=O)N[C@H](C(=O)NCC(=O)NCC(=O)N[C@@H](CC(=O)O)C(=O)NCCCCCCCCCCCCCC(=O)O)CSCC(=O)N[C@@H](Cc2ccc(O)cc2)C(=O)N(C)[C@@H](C)C(=O)N[C@@H](CC(N)=O)C(=O)N2CCC[C@H]2C(=O)N[C@@H](CN)C(=O)N[C@@H](CC(C)C)C(=O)N2C[C@H](O)C[C@@H]2C(=O)N[C@@H](Cc2c[nH]c3ccccc23)C(=O)N[C@@H](CCN)C(=O)N[C@@H](Cc2cn(CC(=O)O)c3ccccc23)C(=O)N1C` [Example 11201] ({CH2CO}-Y[NMeA]NP[Dap]L[d(cisHyp)]W[Dab][Trp(1-CH2COOH)][NMeNle][NMeNle]LCGGD-X20; thioether N-14), the figure is 10 to 99 nM. The value for `CCCC[C@H]1C(=O)N(C)[C@@H](CCCC)C(=O)N[C@@H](CC(C)C)C(=O)N[C@H](C(=O)NCC(=O)N[C@@H](CC(=O)O)C(=O)N[C@@H](CC(=O)NCCCOCCOCCOCCCNC(=O)C[C@H](NC(=O)CCCCCCCCCCCCCCCCC(=O)O)C(=O)O)C(=O)O)CSCC(=O)N[C@@H](Cc2ccc(O)cc2)C(=O)N(C)[C@@H](C)C(=O)N[C@@H](CC(N)=O)C(=O)N2CCC[C@@H]2C(=O)N[C@@H](CN)C(=O)N[C@@H](CC(C)C)C(=O)N2C[C@@H](O)C[C@@H]2C(=O)N[C@@H](Cc2c[nH]c3ccccc23)C(=O)N[C@@H](CCN)C(=O)N[C@@H](Cc2cn(CC(=O)O)c3ccccc23)C(=O)N1C` [Example 11232] ({CH2CO}-Y[NMeA]N[dP][Dap]L[dHyp]W[Dab][Trp(1-CH2COOH)][NMeNle][NMeNle]LCGDD(X4)-OH; thioether N-14) was 10 to 99 nM; that for `CCCC[C@H]1C(=O)N(C)[C@@H](CCCC)C(=O)N[C@@H](CC(C)C)C(=O)N[C@H](C(=O)NCC(=O)N[C@@H](CC(=O)NCCOCCOCCOCCOCCOCCOCCC(=O)NC[C@H](NC(=O)CCCCCCCCCCCCCCC(=O)O)C(=O)O)C(=O)O)CSCC(=O)N[C@@H](Cc2ccc(O)cc2)C(=O)N(C)[C@@H](C)C(=O)N[C@@H](CC(N)=O)C(=O)N2CCC[C@H]2C(=O)N[C@@H](CN)C(=O)N[C@@H](CC(C)C)C(=O)N2C[C@H](O)C[C@@H]2C(=O)N[C@@H](Cc2c[nH]c3ccccc23)C(=O)N[C@@H](CCN)C(=O)N[C@@H](Cc2cn(CC(=O)O)c3ccccc23)C(=O)N1C` [Example 11164] ({CH2CO}-Y[NMeA]NP[Dap]L[d(cisHyp)]W[Dab][Trp(1-CH2COOH)][NMeNle][NMeNle]LCG[βAsp][PEG6]-X10; thioether N-14) was 0.3 to 9.9 nM; that for `CCCC[C@H]1C(=O)N(C)[C@@H](CCCC)C(=O)N[C@@H](CC(C)C)C(=O)N[C@H](C(=O)N[C@H](CC(=O)O)C(=O)NCC(=O)NCCCCCCCCCCCCC(=O)O)CSCC(=O)N[C@@H](Cc2ccc(O)cc2)C(=O)N(C)[C@@H](C)C(=O)N[C@@H](CC(=O)O)C(=O)N2CCC[C@@H]2C(=O)N[C@@H](Cc2cnc[nH]2)C(=O)N[C@@H](CCCCN)C(=O)N2C[C@@H](O)C[C@H]2C(=O)N[C@@H](Cc2c[nH]c3ccccc23)C(=O)N[C@@H](CCCCN)C(=O)N[C@@H](Cc2cn(CC(=O)O)c3ccccc23)C(=O)N1C` [Example 11211] ({CH2CO}-Y[NMeA]D[dP]HK[cisHyp]WK[Trp(1-CH2COOH)][NMeNle][NMeNle]LC[dD]G-{NH(CH2)12COOH}; thioether N-14) was 0.3 to 9.9 nM. The value for `CCCCCCCCCCCCCC(=O)NCc1cn(CC[C@H](NC(=O)CNC(=O)[C@@H]2CSCC(=O)N[C@@H](Cc3ccc(O)cc3)C(=O)N(C)[C@@H](C)C(=O)N[C@@H](CC(N)=O)C(=O)N3CCC[C@H]3C(=O)N[C@@H](CN)C(=O)N[C@@H](CC(C)C)C(=O)N3C[C@H](O)C[C@H]3C(=O)N[C@@H](Cc3c[nH]c4ccccc34)C(=O)N[C@@H](CO)C(=O)N[C@@H](Cc3csc4ccccc34)C(=O)N(C)[C@@H](CCCC)C(=O)N(C)[C@@H](CCCC)C(=O)N[C@@H](CCCNC(=N)N)C(=O)N2)C(N)=O)nn1` [Example 13051] was 10 to 99 nM.
